Laboratory results from paper PMC7459655 (Biomedicines, 2020).
Where “and” joins values, the source holds several entries; their conditions need not be identical. Equal values may be shown once.

Key:
[1] = test system: P. falciparum CQ-sensitive strain 3D7
[2] = test system: P. falciparum CQ-sensitive strain 3D7; assay: microbe, parasite or virus in culture; details: Plasmodium falciparum, 3D7, 72 h
[3] = test system: leukemia cell line Nalm-6
in vitro = details: human
[4] = test system: P. falciparum gametocyte-producing strain NF54 gametocytes; assay type: cell-based, Plasmodium falciparum
[5] = test system: non-infected erythrocytes
[6] = test system: P. falciparum CQ-resistant strain Dd2; assay: microbe, parasite or virus in culture; details: Plasmodium falciparum, DD2, 72 h
[7] = test system: P. falciparum CQ-resistant strain Dd2
[8] = test system: P. falciparum mature gametocytes (male gametogenesis); assay type: cell-based, Plasmodium falciparum

**Q.** Which “antiplasmodial activity against 3D7 (in words)” value [1] does the source give for `CC(C)[C@H]1COC(c2ccccc2[As](c2ccccc2)c2ccccc2)=N1` [As-10] here?
**A.** Its value is “higher micromolar ranges”.

**Q.** What about the IC50 [2] of the same compound?
**A.** The IC50 was 18.1 ± 3 µM.

**Q.** What about the IC90 [2] of the same compound?
**A.** Its IC90 is 163 µM.

**Q.** With `CCCCCCCCCCCC[As](=O)(CCCCCCCCCCCC)CCCCCCCCCCCC` [As-11] as the compound, how does the “antiplasmodial activity against 3D7 (in words)” value [1] read?
**A.** Its value is “higher micromolar ranges”.

**Q.** What about the IC50 [2] of the same compound?
**A.** The IC50 was 43 ± 5.7 µM.

**Q.** For `Cc1ccc2ccccc2c1[As](=O)(O)c1c(C)ccc2ccccc12` [As-8], which “cytotoxic effect, LDH release (in words)” value [3] is on record?
**A.** The value was “No noticeable cytotoxic effect”.

**Q.** What about the CC50 (in vitro) of the same compound?
**A.** Its CC50 is greater than 100 µM.

**Q.** And the “reduction of gametocyte development (stage IV and V gametocytes)” value [4]?
**A.** The value was “about 60%”.

**Q.** And the “hemolytic effect on erythrocytes (in words)” value [5]?
**A.** The value was “no hemolytic effect”.

**Q.** What about the “SI (ratio of CC50 and IC50)” value [1] of the same compound?
**A.** The value was greater than 66.

**Q.** What about the “antiplasmodial activity against 3D7 (in words)” value [1] of the same compound?
**A.** The value was “lower micromolar ranges”.

**Q.** What about the IC50 [6] of the same compound?
**A.** Its IC50 is 0.35 ± 0.099 µM.

**Q.** What about the IC90 [6] of the same compound?
**A.** The IC90 was 3.15 µM.

**Q.** What about the IC50 [2] of the same compound?
**A.** The IC50 was 1.52 ± 0.089 µM.

**Q.** What about the IC90 [2] of the same compound?
**A.** Its IC90 is 13.7 µM.

**Q.** What about the “SI (ratio of CC50 and IC50)” value [7] of the same compound?
**A.** Its value is greater than 286.

**Q.** What about the “antiplasmodial activity against Dd2 compared to 3D7 (in words)” value [7] of the same compound?
**A.** Its value is “increased activities”.

**Q.** What about the “reduction in exflagellation (numbers of exflagellation centers)” value [8] of the same compound?
**A.** The value was 67% and 87%.

**Q.** Which results are given for `c1ccc(-c2ccccc2[As]23(OCCO2)OCCO3)cc1` [As-4]?
**A.** CC50 (in vitro): > 100 µM; hemolytic effect on erythrocytes (in words) [5]: no hemolytic effect; SI (ratio of CC50 and IC50) [1]: >12; antiplasmodial activity against 3D7 (in words) [1]: lower micromolar ranges; IC50 [6]: 30.1 ± 2.07 µM; IC50 [2]: 8.64 ± 0.963 µM; IC90 [2]: 77.8 µM; SI (ratio of CC50 and IC50) [7]: >3; antiplasmodial activity against Dd2 compared to 3D7 (in words) [7]: reduced antiplasmodial activities

**Q.** With `O[As]12(OC(C(F)(F)F)(C(F)(F)F)c3ccccc31)OC(C(F)(F)F)(C(F)(F)F)c1ccccc12` [As-5] as the compound, how does the “antiplasmodial activity against 3D7 (in words)” value [1] read?
**A.** Its value is “higher micromolar ranges”.

**Q.** And the IC50 [2]?
**A.** Its IC50 is 16.6 ± 3.09 µM.

**Q.** What about the IC90 [2] of the same compound?
**A.** Its IC90 is 149 µM.
